Data published in BigSolDB 2.1.

COc1cc(C2Oc3cc(C4Oc5cc(O)cc(O)c5C(=O)C4O)ccc3OC2CO)ccc1O (stereo not given)
Conditions	solubility (mole fraction)
in PEG-400, 298.15 K	0.24
in PEG-400, 303.15 K	0.26
in PEG-400, 313.15 K	0.29
in PEG-400, 323.15 K	0.34
in PEG-400, 333.15 K	0.38

solubility (mole fraction)
Conditions	298.15 K	303.15 K	313.15 K	323.15 K	333.15 K
in ethanol	0.0167	0.0174	0.0193	0.0208	0.0227
in isopropanol	0.00448	0.00477	0.00524	0.00593	0.00662
in water	1.46e-05	1.68e-05	2.09e-05	2.54e-05	3.06e-05
